Measurements from PubChem BioAssay (NCI).
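Protocol summary: plate cells (96-well), add compound at 5 concentrations, incubate 48 h, interpolate endpoints linearly. Abbreviation: GI50, concentration required for 50% inhibition of growth. Definition used: TGI = concentration required for complete inhibition of growth.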

Assays:
Test in all cases: NCI anticancer screen, dose series, 48 h
[1] = test system: 786-0 renal
[2] = test system: A498 renal
[3] = test system: A549 NSCLC
[4] = test system: ACHN renal
[5] = test system: BT-549 breast
[6] = test system: CCRF-CEM leukemia
[7] = test system: COLO 205 colon
[8] = test system: DU-145 prostate
[9] = test system: EKVX NSCLC
[10] = test system: HCC-2998 colon
[11] = test system: HCT-116 colon
[12] = test system: HCT-15 colon
[13] = test system: HL-60(TB) leukemia
[14] = test system: HOP-62 NSCLC
[15] = test system: HOP-92 NSCLC
[16] = test system: HS 578T breast
[17] = test system: HT29 colon
[18] = test system: IGROV1 ovarian
[19] = test system: K-562 leukemia
[20] = test system: KM12 colon
[21] = test system: LOX IMVI melanoma
[22] = test system: M14 melanoma
[23] = test system: MALME-3M melanoma
[24] = test system: MCF7 breast
[25] = test system: MDA-MB-231 breast
[26] = test system: MDA-MB-435
[27] = test system: MOLT-4 leukemia
[28] = test system: NCI-H226 lung
[29] = test system: NCI-H23 lung
[30] = test system: NCI-H460 lung
[31] = test system: NCI-H522 lung
[32] = test system: NCI/ADR-RES ovarian
[33] = test system: OVCAR-3 ovarian
[34] = test system: OVCAR-4 ovarian
[35] = test system: OVCAR-5 ovarian
[36] = test system: OVCAR-8 ovarian
[37] = test system: PC-3 prostate
[38] = test system: RPMI-8226 leukemia
[39] = test system: RXF 393 renal
[40] = test system: SF-268 CNS
[41] = test system: SF-295 CNS
[42] = test system: SF-539 CNS
[43] = test system: SK-MEL-2 melanoma
[44] = test system: SK-MEL-28 melanoma
[45] = test system: SK-MEL-5 melanoma
[46] = test system: SK-OV-3 ovarian
[47] = test system: SN12C renal
[48] = test system: SNB-19 CNS
[49] = test system: SNB-75 CNS
[50] = test system: SR leukemia
[51] = test system: SW-620 colon
[52] = test system: T-47D breast
[53] = test system: U251 CNS
[54] = test system: UACC-257 melanoma
[55] = test system: UACC-62 melanoma
[56] = test system: UO-31 renal

C=C1C(=O)O[C@H]2[C@H]1CC/C(CNC(=O)/C=C/c1cc(OC)c(OC)c(OC)c1)=C\CC[C@@]1(C)O[C@@H]21
GI50 [1]: 1.29 µM
TGI [1]: 2.9 µM
GI50 [2]: 4.1 µM
TGI [2]: 15.7 µM
GI50 [3]: 8.04 µM
TGI [3]: 23.7 µM
GI50 [4]: 1.27 µM
TGI [4]: 2.89 µM
GI50 [5]: 1.51 µM
TGI [5]: 3.95 µM
GI50 [6]: 0.478 µM
TGI [6]: 4.37 µM
GI50 [7]: 0.618 µM
TGI [7]: 2.45 µM
GI50 [8]: 4.95 µM
TGI [8]: 17.3 µM
GI50 [9]: 2.22 µM
TGI [9]: 13.8 µM
GI50 [10]: 2.95 µM
TGI [10]: 6.97 µM
GI50 [11]: 0.76 µM
TGI [11]: 2.1 µM
GI50 [12]: 2.96 µM
TGI [12]: 13.5 µM
GI50 [13]: 0.925 µM
TGI [13]: 3.3 µM
GI50 [14]: 5.29 µM
TGI [14]: 21.9 µM
GI50 [15]: 0.257 µM
TGI [15]: 5.44 µM
GI50 [16]: 4.54 µM
TGI [16]: 27.9 µM
GI50 [17]: 1.59 µM
TGI [17]: 8.31 µM
GI50 [18]: 3.22 µM
TGI [18]: 13.9 µM
GI50 [19]: 0.601 µM
TGI [19]: 4.13 µM
GI50 [20]: 7.62 µM
TGI [20]: 21.1 µM
GI50 [21]: 1.28 µM
TGI [21]: 2.63 µM
GI50 [22]: 1.21 µM
TGI [22]: 2.87 µM
GI50 [23]: 1.34 µM
TGI [23]: 3.44 µM
GI50 [24]: 0.531 µM
TGI [24]: 10.8 µM
GI50 [25]: 3.01 µM
TGI [25]: 14.1 µM
GI50 [26]: 2.33 µM
TGI [26]: 13.5 µM
GI50 [27]: 2.09 µM
TGI [27]: 6.22 µM
GI50 [28]: 7.72 µM
TGI [28]: 28.7 µM
GI50 [29]: 1.58 µM
TGI [29]: 3.58 µM
GI50 [30]: 9.19 µM
TGI [30]: 24.5 µM
GI50 [31]: 0.232 µM
TGI [31]: 1.1 µM
GI50 [32]: 24.4 µM
TGI [32]: > 100 µM
GI50 [33]: 0.333 µM
TGI [33]: 1.44 µM
GI50 [34]: 1.51 µM
TGI [34]: 10.5 µM
GI50 [35]: 2.44 µM
TGI [35]: 12.9 µM
GI50 [36]: 4.09 µM
TGI [36]: 16.1 µM
GI50 [37]: 6.24 µM
TGI [37]: 20 µM
GI50 [38]: 1.59 µM
TGI [38]: 5.47 µM
GI50 [39]: 0.298 µM
TGI [39]: 1.88 µM
GI50 [40]: 3.59 µM
TGI [40]: 15.6 µM
GI50 [41]: 4.61 µM
TGI [41]: 18.2 µM
GI50 [42]: 2 µM
TGI [42]: 5.93 µM
GI50 [43]: 1.73 µM
TGI [43]: 7.18 µM
GI50 [44]: 1.43 µM
TGI [44]: 3.64 µM
GI50 [45]: 2.49 µM
TGI [45]: 7.33 µM
GI50 [46]: 17.2 µM
TGI [46]: 33.3 µM
GI50 [47]: 3.46 µM
TGI [47]: 14.3 µM
GI50 [48]: 11.9 µM
TGI [48]: 32 µM
GI50 [49]: 2.93 µM
TGI [49]: 22.9 µM
GI50 [50]: 0.383 µM
TGI [50]: 9.38 µM
GI50 [51]: 0.615 µM
TGI [51]: 2.49 µM
GI50 [52]: 2.25 µM
TGI [52]: 14.8 µM
GI50 [53]: 4.23 µM
TGI [53]: 16.4 µM
GI50 [54]: 1.76 µM
TGI [54]: 5.72 µM
GI50 [55]: 0.73 µM
TGI [55]: 2.92 µM
GI50 [56]: 1.55 µM
TGI [56]: 4.08 µM
